Reference: US6248718A, “Lesion-directed dry dosage forms of antibacterial agents for the treatment of acute mucosal infections of the oral cavity” (priority 1999, dated 2001)
Several values for one entry are separate records, joined by “and”; a condition that tells them apart may be missing. Equal entries are not always repeated. Entries after “also recorded” stand apart in the source; their conditions may differ.

Key:
[1] = Healing of canker sores in patients (Example VI); assay type: in vivo, human; details: 50 mg four times a day, four days course, six patients
Experimental: (§1) Six (6) adult, otherwise healthy patients suffering from recurrent minor canker sores were selected for this study from July 10 to Nov. 12, 1998. The drug substance used for this study was crystalline penicillin G potassium salt, U.S.P. grade, purchased from Sigma Chemical Co., St. Louis, Mo. 63178 (Lot No. 57H1195).
(§2) On the first or the second day after the patients noticed the formation of the canker ulcers, 50 mg of penicillin G potassium was administered topically with a spatula or the handle of a teaspoon as dry powder directly over the canker ulcers, four times a day, i.e. after breakfast, after lunch, after supper and before bed time. The patients were advised to retain the antibiotic powder and its concentrated solution in a small pocket of saliva at the site of the ulcer and to avoid its excessive dilution by saliva from other parts of the oral cavity for one hour after each application of the antibiotic powder. No food or drink was allowed during this one-hour period.

[2] = Topical dry dosage treatment of minor aphthous ulcers, gingivitis and periodontal infections; assay type: in vivo, human; details: 50 mg dry dosage form, four times a day
Description: The administration of the medicament depends upon the type of infection to be treated and the type and dosage of the antibacterial agent used. The appropriate antibacterial agent, dosage and treatment regimen can readily be determined by someone having ordinary skill in this art. […] Thorough tooth cleaning is advised prior to introduction of the medicament to an infected area.

[3] = system: microbes in the exudate covering the canker ulcer; test: Congo red negative stain microscopy of canker ulcer exudate (Example VI); assay type: in vivo, human oral flora; details: penicillin G potassium 50 mg four times a day, about 48 hours
Experimental: Before the initiation of treatment, a small amount of exudate was scraped off the grayish-white covering of the ulcer with a toothpick and mixed with a drop of aqueous solution of Congo red for a negative stain smear. After the dried smear was exposed to concentrated hydrochloric acid vapor, the negative-stained microorganisms were examined microscopically.
(§3) On day 2, about 48 hours after the medication was initiated, the patients collected an early morning sample of saliva immediately after getting up and submitted it to the laboratory for culture. While in the laboratory, a second sample of the residual exudate covering the ulcer was taken from the patient for a post-treatment follow-up microscopy after Congo red negative staining.

[4] = Concentrations of penicillin G potassium in saliva after oral ingestion (Example VIII); assay type: in vivo, human; details: for concentration in human saliva: 30-min intervals to 3 hours
Experimental: Eight healthy adults, four men and four women, volunteered for this study. Two men and two women were given 500 mg each, and two men and two women were given 250 mg of USP grade penicillin G potassium powder each by mouth, respectively. These two doses were chosen for the study because they have been used as the standard adult oral doses for systemic treatment of human bacterial infections.
In this study, the drug powder was suspended in one teaspoonful of water and swallowed by the test subjects two hours after breakfast, followed by drinking an 8 Oz. glass of water. The test subjects refrained from drinking or eating for the next three hours. Six samples of saliva were collected from each subject at 30-minute intervals in succession in the next three hours. An aliquot of 0.2 ml from each saliva sample was transferred to 3.8 ml of nutrient broth. The mixture of the latter was forced to pass a bacterial filter. Two (2) ml of the bacteria-free filtrate was pipetted out into a sterile test tube and inoculated with 0.1 ml of a 1:1,000 dilution of a 12 hours broth culture of Staphylococcus aureus ATCC 29213 and incubated at 37° C. for 18 hours. A series of test tubes containing known concentrations, from 6.2 mcg/ml to 0.16 mcg/ml, of penicillin G potassium in 2 ml of nutrient broth was also inoculated with the same broth culture as standards.
Since 0.75 mcg/ml is the consistent MIC observed in this laboratory for Staphylococcus aureus ATCC 29213, the penicillin concentration in the saliva-broth filtrate must have been at a level below 0.75 mcg/ml.

[5] = system: bacteria in saliva in the vicinity of the canker ulcer; test: Bacterial inhibition in saliva of canker sore patients in vivo (Example VI)
Experimental: as §1, §2
Samples of 0.1 ml of saliva at the site in the vicinity of the canker ulcer were pipetted from the mouth immediately before instituting the first penicillin G potassium application and about 60-70 minutes after the first antibiotic application. Each sample was spread on the surface of a 10-cm blood agar Petri dish with a sterile plastic loop. The inoculated plates were incubated aerobically at 37° C. for 18 hours as described above. The total numbers of bacterial colonies on each plate were estimated. The dominating species of the microorganisms were identified according to the approved protocols routinely used in a clinical microbiology laboratory. The results are tabulated as follows
as §3
On day 6, i.e. two days after the last dose of medication, the patients were instructed to collect a sample of saliva in a sterile test tube upon waking up in the morning before brushing their teeth. The saliva was brought to the laboratory. Aliquot of 0.1 ml of each saliva sample was pipetted and inoculated on the surface of a blood agar plate and incubated aerobically as described previously. After 18 hours of incubation, there were more 3,000 colonies growing on each blood agar plate. The overwhelming majority of the colonies were those of Neisseriae and non-β-hemolytic streptococci, similar to those observed in FIG. 1.

**Q.** Which “healing of canker sores” value [1] does the source give for `CC1(C)S[C@@H]2[C@H](NC(=O)Cc3ccccc3)C(=O)N2[C@H]1C(=O)O` [penicillin G potassium] here?
**A.** healed completely

**Q.** What about the “patients with complete relief of pains within about 48 hours” value [2] of the same compound?
**A.** over 90%

**Q.** And the “time to complete relief of pains” value [2]?
**A.** ≤ 48 h

**Q.** And the “microbes in exudate after topical treatment” value [3]?
**A.** Only very rare cocci were found; also recorded: practically eliminated

**Q.** And the “concentration in human saliva” value ([4]; oral ingestion of 250 mg)?
**A.** < 15000 ng/mL

**Q.** What about the “concentration in human saliva” value ([4]; oral ingestion of 500 mg) of the same compound?
**A.** < 15000 ng/mL

**Q.** And the “bacterial growth in saliva-broth filtrate” value ([4]; oral ingestion of 250 or 500 mg, S. aureus ATCC 29213, 48 tubes)?
**A.** vigorous bacterial growth

**Q.** And the “duration of inhibitory effect on oral flora” value ([5]; 50 mg)?
**A.** not long-lasting

**Q.** What about the “alteration of normal oral flora” value ([5]; 50 mg four times a day, intermittent) of the same compound?
**A.** not permanently altered; also recorded: did not seem to alter the dominant microbial components of the normal flora

**Q.** And the “Colonies after Treatment” value ([5]; 50 mg powder, about 60-70 minutes, 0.1 ml saliva, per patient, Y = yeast)?
**A.** 0 and 2 and Two

**Q.** And the “inhibition of bacteria in saliva covering the ulcer” value ([5]; 50 mg powder, about one hour)?
**A.** totally destroyed or inhibited; also recorded: intermittent total inhibition of bacterial growth in the saliva

**Q.** And the “bacterial colonies in early morning saliva” value ([5]; day 2, about 48 hours after start of medication, 0.1 ml)?
**A.** more than 3,000 bacterial colonies

**Q.** And the “bacterial colonies in morning saliva” value ([5]; day 6, two days after last dose, 0.1 ml)?
**A.** > 3,000 colonies
